Source: article PMC5247571 (International Journal for Parasitology: Drugs and Drug …, 2017)

Experiments:
[1] = system: blowfly larvae (Lucilia cuprina); test: Blowfly larval bioassay; assay type: in vivo; details: for Blowfly bioassay, pupation, IC50: L. cuprina LS strain, number of pupae on Day 9 vs controls, 2 experiments; for Pupation IC50 relative to larval weight gain IC50: ratio of the two bioassay IC50 values; for Insecticidal activity in the blowfly bioassay (in words): blowfly larval bioassay
[2] = system: HDAC activity of nuclear extracts from blowfly eggs; test: Fluorometric HDAC enzyme assay with nuclear extracts from blowfly eggs; assay type: biochemical, Lucilia cuprina; details: blowfly egg nuclear extract IC50 comparison
[3] = larval bioassay IC50 comparison

Structure (SMILES) | Blowfly bioassay, pupation, IC50 [1] | other results
CCCC(=O)OCOC(=O)C(C)(C)C [AN-9] | >1000 μg/assay | –
CCC(=O)CCCCC[C@@H]1NC(=O)[C@H]2CCCCN2C(=O)[C@H]([C@@H](C)CC)NC(=O)[C@H](Cc2cn(OC)c3ccccc23)NC1=O [Apicidin] | 489 μg/assay | Pupation IC50 relative to larval weight gain IC50 [1]: 6 fold
O=C(/C=C/c1cccc(S(=O)(=O)Nc2ccccc2)c1)NO [Belinostat] | >1000 μg/assay | –
C#Cc1cccc(Nc2ncnc3cc(OC)c(OCCCCCCC(=O)NO)cc23)c1 [CUDC-101] | >1000 μg/assay | –
COc1ccc(-c2nc(N3CCOCC3)c3sc(CN(C)c4ncc(C(=O)NO)cn4)cc3n2)cn1 [CUDC-907] | 13.8 μg/assay | Potency against blowfly larval growth relative to cyromazine (fold less potent) [1, 3]: approximately 10 fold; Pupation IC50 relative to larval weight gain IC50 [1]: approximately equal
Nc1nc(N)nc(NC2CC2)n1 [Cyromazine] | 1.54 μg/assay | –
N#Cc1c(N)nc(NC2CC2)nc1N [Dicyclanil] | 0.0634 μg/assay | –
O=C(NC(=O)c1c(F)cccc1F)Nc1ccc(Cl)cc1 [Diflubenzuron] | 0.119 μg/assay | –
Nc1ccccc1NC(=O)c1ccc(CNC(=O)OCc2cccnc2)cc1 [Entinostat] | 640 μg/assay | –
CCN(CC)Cc1ccc2cc(COC(=O)Nc3ccc(C(=O)NO)cc3)ccc2c1 [Givinostat] | >1000 μg/assay | –
Nc1ccccc1NC(=O)c1ccc(CNc2nccc(-c3cccnc3)n2)cc1 [Mocetinostat] | >1000 μg/assay | –
CCCCN(Cc1ccc(C(=O)NO)cc1)C(=O)Nc1ccccc1 [Nexturostat, Nexturastat A] | >1000 μg/assay | –
Cc1[nH]c2ccccc2c1CCNCc1ccc(/C=C/C(=O)NO)cc1 [Panobinostat] | 393 μg/assay | –
C=C1C(=O)O[C@H]2[C@H]1CC/C(C)=C/CC[C@@]1(C)O[C@@H]21 [Parthenolide, parthenolide] | >1000 μg/assay | Insecticidal activity in the blowfly bioassay (in words) [1]: no insecticidal activity
CCCCc1nc2cc(/C=C/C(=O)NO)ccc2n1CCN(CC)CC [Pracinostat] | >1000 μg/assay | –
O=C(NCCSSCCNC(=O)/C(Cc1ccc(O)c(Br)c1)=N/O)/C(Cc1ccc(O)c(Br)c1)=N/O [Psammaplin A] | 93.4 μg/assay | –
Cn1cc(CNCC2CCN(c3ncc(C(=O)NO)cn3)CC2)c2ccccc21 [Quisinostat] | 274 μg/assay | –
CN(C)Cc1ccc(S(=O)(=O)n2ccc(/C=C/C(=O)NO)c2)cc1 [Resminostat] | >1000 μg/assay | –
C/C=C1\NC(=O)[C@H]2CSSCC/C=C/[C@H](CC(=O)N[C@H](C(C)C)C(=O)N2)OC(=O)[C@H](C(C)C)NC1=O [Romidepsin] | 0.196 μg/assay | Potency against blowfly larval growth relative to cyromazine (fold more potent) [1, 3]: 10 fold; Potency against blowfly larval growth relative to dicyclanil ([1]; larval bioassay IC50 comparison, in words): equipotent; Pupation IC50 relative to larval weight gain IC50 [1]: ≤ 2 fold; Potency in nuclear extract HDAC assay relative to quisinostat (fold more potent) [2]: approximately 600 fold
CC(/C=C/C(=O)NO)=C\[C@@H](C)C(=O)c1ccc(N(C)C)cc1 [Trichostatin] | 20.6 μg/assay | Potency against blowfly larval growth relative to cyromazine (fold less potent) [1, 3]: approximately 10 fold; Pupation IC50 relative to larval weight gain IC50 [1]: ≤ 2 fold
O=C(CCCCCCC(=O)Nc1ccc([C@H]2O[C@@H](CSc3nc(-c4ccccc4)c(-c4ccccc4)o3)C[C@@H](c3ccc(CO)cc3)O2)cc1)NO [Tubacin] | >1000 μg/assay | Insecticidal activity in the blowfly bioassay (in words) [1]: inactive
CN1CCc2c(c3ccccc3n2Cc2ccc(C(=O)NO)cc2)C1 [Tubastatin A] | >1000 μg/assay | Insecticidal activity in the blowfly bioassay (in words) [1]: inactive
CCCC(CCC)C(=O)O [Valproic acid] | >1000 μg/assay | –
